{"source": "patent US4960790A", "about": "“Derivatives of taxol, pharmaceutical compositions thereof and methods for the preparation thereof” (University of Kansas, priority 1989, dated 1990)", "key": {"[1]": {"test": "Chemical stability in buffer or water", "type": "physicochemical", "method": "The compound was subjected to stability studies according to the following procedures.\n(§1) Stabilities of derivatives at various pHs were studied at 25° and 37°. The plasma studies were conducted at 37° in rat and human plasma. Human plasma was obtained from Watkins Hospital and rat plasma was obtained from the Animal Care Unit of the University of Kansas. The derivative concentration used was around 20-25 μg/ml. A stock solution of the compound was prepared at 0.8-1.0 mg/mL and was added to plasma to give the desired concentration (20-25 μg/mL). One hundred microliter samples were removed and was quenched with 250 uL. acetonitrile and centrifuged to precipitate the plasma proteins. The degradation kinetics were studied by HPLC plotting peak area vs. time. The t90 and t50 were calculated. Both chemical and plasma studies were followed by high performance liquid chromatography using a RP-8 column (15 cm) and a precolumn (5 cm). The detector was set at 227 nm. The mobile phase consisted of 0.02M acetate (pH 5): acetonitrile 50:50 or 35:65 and the flow rate ranged from 1-1.5 mL/min or the same solvents containing 0.001M tetrabutylammoniumydrogensulphate and a flow rate of 1 mL/min.\nThe identity of this peak was further confirmed by the degradation studies of the new derivatives. Thus, 2'(DMG) taxol was incubated with water at 37° and the product was concentrated and purified by preparative TLC. The product after purification was analyzed by HPLC and spectroscopic methods."}, "microtubule assembly": {"system": "microtubule assembly", "test": "In vitro microtubule assembly kinetics", "type": "biochemical", "settings": "rank order", "method": "(A) In vitro Microtubule Assembly Kinetics Studies\nThe microtubule assembly study was conducted using both 2' and 7-derivatives according to the in vitro procedures disclosed, for example, in Mellado et al., Biochemical and Biophysical Research Communications, Vol. 124, No. 2 (1984), pp. 329-336; Magri et al., J. Org. Chem., 51, 797-802 (1986); and Parness et al., Biochemical and Biophysical Research Communications, Vol. 105, No. 3, pp. 1082-1091 (1982)."}, "B-16 melanoma cells": {"system": "B-16 melanoma cells", "test": "In vitro B16 melanoma cell proliferation", "type": "cell-based", "settings": "rank order", "method": "These studies were conducted according to standard procedures as described in Donoso and Himes, Cancer Biochem. Biophysics, vol. 7, (1984), p. 133."}, "[2]": {"system": "human mammary carcinoma MX-1 xenograft", "test": "Subrenal capsule human mammary carcinoma MX-1 xenograft in mice", "settings": "for % T/C: Q4D Days 1, 5, 9; for % T/C / # OF ANMLS ALIVE CALC/TOTAL / Average tumor WEIGHT CHANGE (DELTA) / Average tumor weight, FINAL: Day 11; for ANML BODY WT DIFF (test minus control) / TEST BODY WT CHG / # OF ANMLS ALIVE CALC/TOTAL / Average tumor WEIGHT CHANGE (DELTA) / Average tumor weight, FINAL: Q4D; for ANML BODY WT DIFF (test minus control) / TEST BODY WT CHG: Day 1 to 11", "excerpt": "The procedures followed are those described at pages 23-24 of NIH Publication No. 84-2635, In Vivo Cancer Model (February 1984).\nIn the procedure, test groups of mice (6 mice per test group) and control groups of 12 mice per group are utilized. A tumor fragment (human mammary carcinoma MX-1 xenograft), is implanted under the membranous covering of the kidney of each mouse.\nDay 0: Anesthetize animals. Record body weight (Weigh Day 1). Implant tumor, measure and record. Randomize animals after they recover from the anesthetic. Run bacterial cultures. Determine solubilities of test agent. Record deaths daily.\nDay 1: Check cultures. Discard experiment if contaminated. Prepare test materials. Initiate test agent injections (in the nape of the neck) based on individual body weight. Treatment is Q4D on Days 1, 5, and 9. Prepare test agent fresh on each injection day and administer based on individual body weight for that day.\nDays 5 and 9: Prepare test agent fresh on each injection day and administer based on individual body weight for that day.\nDay 11: End and evaluate experiment. Record body weights (Weigh Day 2). Measure tumor in OMU's (Ocular Micrometer Unit--10 OMU's=1 mm) and record.\nThe parameter measured is mean tumor weight change (delta) based on length and width measurements in millimeters. Mean animal body weights are computed for Day 1 and Day 11, compute T/C for all test groups with>65% survivors on Day 11. An excessive body weight change difference (test minus control) may also be used in evaluating toxicity. The dimensions are measured and recorded in Ocular Micrometer Units (OMU). A computer is utilized for the following:\n(1) Converts OMU's to millimeters (mm).\n(2) Calculates tumor weights (mgs) from tumor dimensions (mm×mm) following the formula for the volume of a prolate ellipsoid: [formula] (3) Calculates the change (delta) in mean tumor weight for each group of mice:\nChange in Mean Tumor Weight=Mean Tumor WeightFINAL -Mean Tumor WeightINITIAL.\n(4) Calculates the change (delta) in mean tumor weight for test (T) and control (C) groups.\n(5) Calculates T/C% for all test groups with>65% survivors on Final Evaluation Day: [formula]"}, "Solubility": {"test": "Solubility", "type": "physicochemical", "settings": "read-out: Solubility"}, "[3]": {"test": "Plasma stability, rat plasma", "type": "in vitro ADME", "settings": "rat plasma (20 μg/mL), 37° C.", "method": "as §1"}, "[4]": {"test": "Plasma stability, dog plasma", "type": "in vitro ADME", "settings": "dog plasma (20 μg/mL), 37° C."}, "[5]": {"test": "Plasma stability, human plasma", "type": "in vitro ADME", "settings": "37° C.", "method": "as §1, with “The derivative concentration used was around 20-25 μg/ml. A stock solution of the compound was prepared at 0.8-1.0 mg/mL and was added to plasma to give the desired concentration (20-25 μg/mL).” left out"}}, "note": "Where a name gives a salt, the structure may show the parent alone. Read-outs that look alike come from different tables or passages of the source.", "data": [{"compound": "CC(=O)O[C@H]1C(=O)[C@@]2(C)[C@H]([C@H](OC(=O)c3ccccc3)[C@]3(O)C[C@H](OC(=O)[C@H](OC(=O)CN(C)C)[C@@H](NC(=O)c4ccccc4)c4ccccc4)C(C)=C1C3(C)C)[C@]1(OC(C)=O)CO[C@@H]1C[C@@H]2O", "note": "[Compound 1, 2'-(N,N-dimethylglycyl)taxol]", "values": [{"measurement": "Identity of degradation product", "setting": "[1]; incubated with water at 37°", "value": "the product is taxol"}, {"measurement": "Ability to assemble microtubules (order)", "setting": "microtubule assembly", "value": "taxol >7-(N,N-dimethylglycyl)taxol(11)>2'(N,N-diethylaminopropionyl)taxol(8)>2'(N,N-dimethylglycyl)taxol(2)"}, {"measurement": "Order of effectiveness in B-16 melanoma cell proliferation study", "setting": "B-16 melanoma cells", "value": "taxol>2'-(N,N-dimethylglycyl)taxol>2'-(N,N-diethylaminopropionyl)taxol>7-(N,N-dimethylglycyl)taxol"}, {"measurement": "% T/C", "setting": "[2]; Table 1, 5.90 mg/kg", "value": -78, "unit": "%"}, {"measurement": "ANML BODY WT DIFF (test minus control)", "setting": "[2]; Table 1, 5.90 mg/kg", "value": "-.5"}, {"measurement": "TEST BODY WT CHG", "setting": "[2]; Table 1, 5.90 mg/kg", "value": -2.2}, {"measurement": "# OF ANMLS ALIVE CALC/TOTAL", "setting": "[2]; Table 1, 5.90 mg/kg", "value": "6/6"}, {"measurement": "Average tumor WEIGHT CHANGE (DELTA)", "setting": "[2]; Table 1, 5.90 mg/kg", "value": "-.48 MGS"}, {"measurement": "Average tumor weight, FINAL", "setting": "[2]; Table 1, 5.90 mg/kg", "value": ".13 MGS"}, {"measurement": "% T/C", "setting": "[2]; Table 1, 8.90 mg/kg", "value": -53, "unit": "%"}, {"measurement": "ANML BODY WT DIFF (test minus control)", "setting": "[2]; Table 1, 8.90 mg/kg", "value": ".8"}, {"measurement": "TEST BODY WT CHG", "setting": "[2]; Table 1, 8.90 mg/kg", "value": "-.9"}, {"measurement": "# OF ANMLS ALIVE CALC/TOTAL", "setting": "[2]; Table 1, 8.90 mg/kg", "value": "5/6"}, {"measurement": "Average tumor WEIGHT CHANGE (DELTA)", "setting": "[2]; Table 1, 8.90 mg/kg", "value": "-.41 MGS"}, {"measurement": "Average tumor weight, FINAL", "setting": "[2]; Table 1, 8.90 mg/kg", "value": ".36 MGS"}, {"measurement": "ANML BODY WT DIFF (test minus control)", "setting": "[2]; Table 1, 13.30 mg/kg", "value": "-.6"}, {"measurement": "TEST BODY WT CHG", "setting": "[2]; Table 1, 13.30 mg/kg", "value": -2.3}, {"measurement": "# OF ANMLS ALIVE CALC/TOTAL", "setting": "[2]; Table 1, 13.30 mg/kg", "value": "4/6"}, {"measurement": "Average tumor WEIGHT CHANGE (DELTA)", "setting": "[2]; Table 1, 13.30 mg/kg", "value": "-.64 MGS"}, {"measurement": "Average tumor weight, FINAL", "setting": "[2]; Table 1, 13.30 mg/kg", "value": ".00 MGS"}, {"measurement": "ANML BODY WT DIFF (test minus control)", "setting": "[2]; Table 1, 20.00 mg/kg", "value": "-.5"}, {"measurement": "TEST BODY WT CHG", "setting": "[2]; Table 1, 20.00 mg/kg", "value": -2.2}, {"measurement": "# OF ANMLS ALIVE CALC/TOTAL", "setting": "[2]; Table 1, 20.00 mg/kg", "value": "4/6"}, {"measurement": "Average tumor WEIGHT CHANGE (DELTA)", "setting": "[2]; Table 1, 20.00 mg/kg", "value": "-.56 MGS"}, {"measurement": "Average tumor weight, FINAL", "setting": "[2]; Table 1, 20.00 mg/kg", "value": ".00 MGS"}, {"measurement": "% T/C", "setting": "[2]; Table 1, 30.00 mg/kg", "value": "TOX"}, {"measurement": "TEST BODY WT CHG", "setting": "[2]; Table 1, 30.00 mg/kg", "value": -3.8}, {"measurement": "# OF ANMLS ALIVE CALC/TOTAL", "setting": "[2]; Table 1, 30.00 mg/kg", "value": "1/6"}, {"measurement": "Average tumor weight, FINAL", "setting": "[2]; Table 1, 30.00 mg/kg", "value": ".00 MGS"}]}, {"compound": "CC(=O)O[C@H]1C(=O)[C@@]2(C)[C@H]([C@H](OC(=O)c3ccccc3)[C@]3(O)C[C@H](OC(=O)[C@H](OC(=O)CN(C)C)[C@@H](NC(=O)c4ccccc4)c4ccccc4)C(C)=C1C3(C)C)[C@]1(OC(C)=O)CO[C@@H]1C[C@@H]2O", "note": "[Compound 2, Methanesulphonic acid salt of 2'-(N,N-dimethylglycyl)taxol]", "values": [{"measurement": "solubility", "setting": "Solubility; Clear", "value": 2000, "unit": "µg/mL"}, {"measurement": "solubility", "setting": "Solubility; Slightly Hazy", "value": 15000, "unit": "µg/mL"}, {"measurement": "half-life", "setting": "[1]; 0.02 M Acetate (0.1 mg/mL), pH 3.5, 25° C.", "value": 96.2, "unit": "h"}, {"measurement": "half-life", "setting": "[1]; 0.02 M Acetate (0.1 mg/mL), pH 4.5, 25° C.", "value": 55.4, "unit": "h"}, {"measurement": "half-life", "setting": "[1]; water (2 mg/mL), pH 3.8, 37° C.", "value": 89.8, "unit": "h"}, {"measurement": "half-life", "setting": "[3]", "value": 0.0508, "unit": "h"}, {"measurement": "half-life", "setting": "[4]", "value": 2.03, "unit": "h"}, {"measurement": "half-life", "setting": "[5]; human plasma (20 μg/mL)", "value": 3.31, "unit": "h"}]}, {"compound": "CC(=O)O[C@H]1C(=O)[C@]2(C)[C@@H](OC(=O)CN(C)C)C[C@H]3OC[C@@]3(OC(C)=O)[C@H]2[C@H](OC(=O)c2ccccc2)[C@]2(O)C[C@H](OC(=O)[C@H](O)[C@@H](NC(=O)c3ccccc3)c3ccccc3)C(C)=C1C2(C)C", "note": "[Compound 8, Methanesulphonic acid salt of 7-(dimethylglycyl)taxol]", "values": [{"measurement": "solubility", "setting": "Solubility", "value": "> 2000", "unit": "µg/mL"}, {"measurement": "half-life", "setting": "[1]; 0.02 M Acetate, pH 3.5, 25° C.", "value": 3400, "unit": "h"}, {"measurement": "half-life", "setting": "[1]; 0.02 M Phosphate, pH 7.4, 25° C.", "value": 33.8, "unit": "h"}, {"measurement": "half-life", "setting": "[1]; 0.02 M acetate, pH 4.5, 25° C.", "value": 1720, "unit": "h"}, {"measurement": "half-life", "setting": "[3]", "value": 17.3, "unit": "h"}, {"measurement": "half-life", "setting": "[5]; human plasma (10 μg/mL)", "value": 24.4, "unit": "h"}, {"measurement": "half-life", "setting": "[5]; human plasma (20 μg/mL)", "value": 27.7, "unit": "h"}]}]}
